# In patent US8580821B2, “Serotonin transporter (SERT) inhibitors for the treatment of depression and anxiety” (Hoffmann-La Roche Inc., priority 2006, dated 2013):
# pKi: −log10 of the molar value. Where a name gives a salt, the structure may show the parent alone. Read-outs that look alike come from different tables or passages of the source.
# Key:
# [1] = biological target: T1, human NK-1 receptor (Homo sapiens, UniProt P25103); experiment: hNK-1 binding assay ([3H]substance P displacement, transfected CHO cells); settings: for Ki: [3H]substance P 0.6 nM, CHO cells transfected with human NK-1 receptor, read-out: pKi hNK1 (converted)
# T1 construct: expressed in transfected cells; host or cells: CHO cells, Semliki virus expression system; membrane suspension
# T1 sequence (P25103 whole entry): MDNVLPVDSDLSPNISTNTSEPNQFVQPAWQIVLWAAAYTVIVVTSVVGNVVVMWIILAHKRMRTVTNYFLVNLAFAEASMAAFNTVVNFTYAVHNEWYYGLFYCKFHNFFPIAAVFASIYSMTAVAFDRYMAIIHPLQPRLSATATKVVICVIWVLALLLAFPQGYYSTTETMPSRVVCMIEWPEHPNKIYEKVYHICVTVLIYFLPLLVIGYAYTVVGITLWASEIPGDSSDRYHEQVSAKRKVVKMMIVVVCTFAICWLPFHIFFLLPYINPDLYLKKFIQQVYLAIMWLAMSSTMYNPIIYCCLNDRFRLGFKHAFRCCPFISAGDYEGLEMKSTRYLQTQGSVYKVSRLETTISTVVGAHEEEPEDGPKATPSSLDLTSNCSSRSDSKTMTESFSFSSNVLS
# Method: The affinity of test compounds for the NK-1 receptor was evaluated at human NK-1 receptors in CHO cells transfected with the human NK-1 receptor using the Semliki virus expression system and radiolabelled with [^3H]substance P (final concentration 0.6 nM). Binding assays were performed in HEPES buffer (50 mM, pH 7.4) containing BSA (0.04%) leupeptin (8 μg/ml), MnCl2 (3 mM) and phosphoramidon (2 μM). Binding assays consisted of 250 μl of membrane suspension (1.25×10^5 cells/assay tube), 125 μl of buffer of displacing agent and 125 μl of [^3H]substance P. Displacement curves were determined with at least ten concentrations of the compound. The assay tubes were incubated for 60 min at room temperature after which time the tube contents were rapidly filtered under vacuum through GF/C filters presoaked for 60 min with PEI (0.3%) with 2×2 ml washes of HEPES buffer (50 mM, pH 7.4). The radioactivity retained on the filters was measured by scintillation counting. All assays were performed in duplicate in at least 2 separate experiments.
# The inhibition dissociation constant (Ki) of each compound for NK1 is determined as described above for hSERT.
# [2] = biological target: T2, recombinant human SERT (Homo sapiens, UniProt P31645); experiment: hSERT SPA binding assay ([3H]citalopram displacement, HEK-293 membranes); settings: for Ki: read-out: pKi hSERT (converted)
# T2 construct: expressed in transfected cells
# T2 sequence (P31645 whole entry): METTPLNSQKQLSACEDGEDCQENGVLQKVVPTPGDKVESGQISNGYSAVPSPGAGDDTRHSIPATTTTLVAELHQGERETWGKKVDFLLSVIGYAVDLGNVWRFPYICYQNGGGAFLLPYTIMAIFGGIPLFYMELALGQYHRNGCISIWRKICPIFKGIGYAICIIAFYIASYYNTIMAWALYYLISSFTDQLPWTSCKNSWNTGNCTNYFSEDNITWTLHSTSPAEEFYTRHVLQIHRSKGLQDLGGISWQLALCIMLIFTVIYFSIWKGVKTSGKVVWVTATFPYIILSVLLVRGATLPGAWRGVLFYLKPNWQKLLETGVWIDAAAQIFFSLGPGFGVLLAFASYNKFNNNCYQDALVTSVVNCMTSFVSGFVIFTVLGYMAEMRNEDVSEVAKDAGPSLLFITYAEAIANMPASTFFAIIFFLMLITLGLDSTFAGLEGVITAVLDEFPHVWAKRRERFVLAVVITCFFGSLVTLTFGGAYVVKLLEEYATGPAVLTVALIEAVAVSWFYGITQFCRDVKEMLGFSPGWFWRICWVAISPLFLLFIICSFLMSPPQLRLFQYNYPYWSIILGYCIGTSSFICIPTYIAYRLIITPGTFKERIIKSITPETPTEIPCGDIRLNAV
# Method: HEK-293 cells stably expressing recombinant human SERT are maintained with DMEM high glucose with 10% FBS, 300 μg/ml G418 and 2 mM L-Glutamine and incubated at 37° C. with 5% CO2. Cells are released from culture flasks using PBS for 1-2 min. The cells are subsequently centrifuged at 1000 g's for 5 min and resuspended in PBS prior to being used in the membrane preparation.
# Cells are homogenized using a Polytron in 50 mM Tris (pH 7.4). Centrifuged at 48,000×g for 15 min, and the pellet resuspended in fresh buffer. After a second centrifugation, the pellet is re-homogenized and resuspended in fresh buffer. Typically, membrane portions are aliquoted in 3 mg/ml (w:v). and stored at 80° C.
# A serial dilution of test compounds in 50 mM Tris-HCl, 120 mM NaCl, KCl 5 mM (pH 7.4) is made in a white Optiplate (Packard) (100 μl/well) and the radioligand ^3[H] Citalopram (Specific activity: 60-86 Ci/mmol, Final concentration: 1 nM) is added at 50 μl/well. Membrane and beads are prepared to a ratio of 5 μg:0.6 mg, with 0.6 mg PVT-WGA Amersham beads (Cat# RPQ0282V) added per well. 50 μl of the membrane/bead mixture is added to the assay plate for a final volume of 200 μl. The mixtures are allowed to stand at room temperature for one hour, and are then counted on a Packard TopCount.
# The inhibition dissociation constant (Ki) of each compound is determined according to the method of Cheng-Prusoff.
SMILES,Ki [1] [nM],pKi [1],Ki [2] [nM],pKi [2]
"O=S(=O)(Cc1cc(C(F)(F)F)cc(C(F)(F)F)c1)C[C@@H]1CNCC[C@H]1c1ccc(F)cc1 [Example 3 of II, reference compound]",13.5,–,–,–
"Fc1ccc([C@@H]2CCNC[C@H]2COCc2cc(C(F)(F)F)cc(C(F)(F)F)c2)cc1 [Example 1 of I, (−)-(3S,4R)-3-(3,5-Bis-trifluoromethyl-benzyloxymethyl)-4-(4-fluoro-phenyl)-piperidine hydrochloride]",–,7.90,6.17,–
"FC(F)(F)c1cc(COC[C@@H]2CNCC[C@H]2c2ccccc2)cc(C(F)(F)F)c1 (racemic) [Example 5 of I, (3SR,4RS)-3-(3,5-Bis-trifluoromethyl-benzyloxymethyl)-4-phenyl-piperidine hydrochloride]",8.91,–,11,–
"CC(=O)N(Cc1cc(C(F)(F)F)cc(C(F)(F)F)c1)C[C@@H]1CNCC[C@H]1c1ccc(F)cc1 [Example 3 of III, reference compound]",13.8,–,10000,–
"Fc1ccc([C@@H]2CCNCC2CNCc2cc(C(F)(F)F)cc(C(F)(F)F)c2)cc1 (stereo partly shown) [Example 1 of III, reference compound]",12.6,–,724,–
"[O-][S+](Cc1cc(C(F)(F)F)cc(C(F)(F)F)c1)C[C@@H]1CNCC[C@H]1c1ccc(F)cc1 (stereo partly shown) [Example 2 of II, reference compound]",63.1,–,3020,–
"Cc1ccccc1[C@@H]1CCNC[C@H]1COCc1cc(C(F)(F)F)cc(C(F)(F)F)c1 (relative stereo) [Example 6 of I, (−)-(trans)-3-(3,5-Bis-trifluoromethyl-benzyloxymethyl)-4-o-tolyl-piperidine hydrochloride]",24,–,32.4,–
"Fc1ccc([C@@H]2CCNC[C@H]2COCc2cccc(C(F)(F)F)c2)cc1 [Example 4 of I, (−)-(3S,4R)-4-(4-Fluoro-phenyl)-3-(3-trifluoromethyl-benzyloxymethyl)-piperidine hydrochloride]",148,–,–,7.77
CN1CC[C@@H](c2ccc(F)cc2)[C@H](COCc2cc(C(F)(F)F)cc(C(F)(F)F)c2)C1 [Example 2 of I],8.13,–,107,–
"CS(=O)(=O)N(Cc1cc(C(F)(F)F)cc(C(F)(F)F)c1)C[C@@H]1CNCC[C@H]1c1ccc(F)cc1 [Example 4 of III, reference compound]",30.2,–,10000,–
"CN(Cc1cc(C(F)(F)F)cc(C(F)(F)F)c1)C[C@@H]1CNCC[C@H]1c1ccc(F)cc1 [Example 2 of III, reference compound]",20.4,–,708,–
"N#CCN1CC[C@@H](c2ccc(F)cc2)[C@H](COCc2cc(C(F)(F)F)cc(C(F)(F)F)c2)C1 [Example 3 of I, (−)-[(3S,4R)-3-(3,5-Bis-trifluoromethyl-benzyloxymethyl)-4-(4-fluoro-phenyl)-piperidin-1-yl]-acetonitrile]",21.4,–,141,–
"Cc1ccccc1C1=C(COCc2cc(C(F)(F)F)cc(C(F)(F)F)c2)CNCC1 [Example 7 of I, 5-(3,5-Bis-trifluoromethyl-benzyloxymethyl)-4-o-tolyl-1,2,3,6-tetrahydro-pyridine hydrochloride]",–,8.50,32.4,–
